From ChEMBL document CHEMBL6078643, “Palladium-Mediated Bioorthogonal System for Prodrug Activation of N-Benzylbenzamide-Containing Tubulin Polymerization Inhibitors for the Treatment of Solid Tumors” (J Med Chem, 2024)
Calls of active or inactive are those of the source. The calls are words filed in the database; no cut-off is given here.

Legend:
[1] = system: K562; experiment: Induction of ROS generation in human K562 cells assessed as increase in DCF-positive cells at 80 nM incubated for 72 hrs in presence of palladium resins by DCF-DA staining based flow cytometric analysis (reference value: 7.67%); type: functional
[2] = Toxicity in Balb/c mouse xenografted with human HepG2 cells assessed as effect on spleen at 20 mg/kg, iv administered daily in presence of palladium resins for 14 days by H and E staining based analysis; type: organism-based; settings: in vivo, 336 h, time 14 day
[3] = molecular target: T1, Tubulin (Homo sapiens) (UniProt P68371+Q9H4B7+P0DPH7+P68366+Q13509+Q71U36+P04350+Q3ZCM7+P07437+P68363+Q9BQE3+Q6PEY2+Q13885+Q9BVA1+Q9BUF5); experiment: In vivo inhibition of tubulin polymerization in human HepG2 cells xenografted in Balb/c mouse assessed as decrease in beta tubulin expression at 20 mg/kg, iv administered daily for 14 days in presence of palladium resins incubated for 24 hrs by Western blot analysis; type: functional, organism-based; settings: time 14.0 day
[4] = molecular target: T1, Tubulin (Homo sapiens); experiment: Disruption of microtubule organization in human K562 cells assessed as appearance of fibrous microtubules at 80 nM incubated for 72 hrs by DAPI staining based confocal microscopic analysis; type: cell-based
[5] = Toxicity in Balb/c mouse xenografted with human HepG2 cells assessed as effect on kidney at 20 mg/kg, iv administered daily in presence of palladium resins for 14 days by H and E staining based analysis; type: organism-based; settings: in vivo, 336 h, time 14 day
[6] = system: K562; experiment: Induction of cell cycle arrest in human K562 cells assessed as accumulation of cells at G2 phase at 80 nM incubated for 72 hrs by PI staining based flow cytometric analysis ( Rvb = 8.5 %); type: functional
[7] = system: K562; experiment: Induction of cell cycle arrest in human K562 cells assessed as accumulation of cells at S phase at 80 nM incubated for 72 hrs by PI staining based flow cytometric analysis ( Rvb = 14.04 %); type: functional
[8] = system: K562; experiment: Induction of cell cycle arrest in human K562 cells assessed as accumulation of cells at G2/M phase at 80 nM incubated for 72 hrs by PI staining based flow cytometric analysis ( Rvb = 8.5 %); type: functional
[9] = molecular target: T1, Tubulin (Homo sapiens); experiment: Inhibition of tubulin polymerization in human HepG2 cells assessed as decrease in alpha tubulin expression at 80 nM incubated for 24 hrs in presence of palladium resins by Western blotting analysis; type: cell-based
[10] = system: K562; experiment: Induction of apoptosis in human K562 cells assessed as chromatin condensation at 80 nM incubated for 72 hrs in presence of palladium resins by Hoechst 33342 staining based fluorescent microscopic analysis; type: functional, cell-based
[11] = system: HepG2; experiment: Antitumor activity against human HepG2 cells xenografted in Balb/c mouse assessed as cell necrosis at 20 mg/kg, iv administered daily for 14 days in presence of palladium resins by TUNEL staining based analysis; type: functional, organism-based; settings: time 14.0 day
[12] = molecular target: T1, Tubulin (Homo sapiens); experiment: Inhibition of tubulin polymerization in human K562 cells assessed as decrease in alpha tubulin expression at 80 nM incubated for 24 hrs in presence of palladium resins by Western blotting analysis; type: cell-based
[13] = system: K562; experiment: Induction of apoptosis in human K562 cells assessed as viable cells at 80 nM incubated for 72 hrs in presence of palladium resins by Annexin V-APC staining based flow cytometric analysis (reference value: 94.21%); type: functional; settings: read-out: Activity
[14] = system: HUVEC; experiment: Antivascular activity against HUVEC cells assessed as inhibition of cell migration at 80 nM incubated for 24 hrs by phase contrast microscopic analysis; type: functional, cell-based; settings: Homo sapiens
[15] = system: K562; experiment: Induction of apoptosis in human K562 cells assessed as necrotic cells at 80 nM incubated for 72 hrs in presence of palladium resins by Annexin V-APC staining based flow cytometric analysis (reference value: 1.65%); type: functional
[16] = system: Mitochondrial membrane; experiment: Induction of mitochondrial membrane potential loss in human K562 cells assessed as green fluorescence intensity incubated for 72 hrs by JC-1 staining based flow cytometric analysis (reference value: 6.74%); type: cell membranes
[17] = molecular target: T1, Tubulin (Homo sapiens); experiment: Disruption of microtubule organization in human K562 cells assessed as appearance of slim microtubules at 80 nM incubated for 72 hrs by DAPI staining based confocal microscopic analysis; type: cell-based
[18] = system: HepG2; experiment: Antitumor activity against human HepG2 cells xenografted in Balb/c mouse assessed as cell necrosis at 20 mg/kg, iv administered daily for 14 days in presence of palladium resins by H and E staining based analysis; type: functional, organism-based; settings: time 14.0 day
[19] = system: Mitochondrial membrane; experiment: Induction of mitochondrial membrane potential loss in human K562 cells assessed as increase in green fluorescence intensity at 80 nM incubated for 72 hrs in presence of palladium resins by JC-1 staining based flow cytometric analysis (reference value: 6.74%); type: cell membranes
[20] = system: K562; experiment: Induction of apoptosis in human K562 cells assessed as late apoptotic cells at 80 nM incubated for 72 hrs by Annexin V-APC staining based flow cytometric analysis (reference value: 1.36%); type: functional
[21] = system: K562; experiment: Cytotoxicity against human K562 cells assessed as parent drug 5-fluoro-N-(3-hydroxy-4-methoxybenzyl)-2-morpholinobenzamide mediated decrease in cell viability at 100 nM in presence of palladium resins incubated for 72 hrs by CCK-8 assay; type: functional, cell-based
[22] = molecular target: T1, Tubulin (Homo sapiens); experiment: In vivo inhibition of tubulin polymerization in human HepG2 cells xenografted in Balb/c mouse assessed as decrease in alpha tubulin expression at 20 mg/kg, iv administered daily for 14 days in presence of palladium resins incubated for 24 hrs by Western blot analysis; type: functional, organism-based; settings: time 14.0 day
[23] = Toxicity in Balb/c mouse xenografted with human HepG2 cells assessed as effect on lung at 20 mg/kg, iv administered daily in presence of palladium resins for 14 days by H and E staining based analysis; type: organism-based; settings: in vivo, 336 h, time 14 day
[24] = system: K562; experiment: Induction of apoptosis in human K562 cells assessed as viable cells at 80 nM incubated for 72 hrs by Annexin V-APC staining based flow cytometric analysis (reference value: 94.21%); type: functional; settings: read-out: Activity
[25] = molecular target: T1, Tubulin (Homo sapiens); experiment: Inhibition of tubulin polymerization in human HepG2 cells assessed as decrease in polymerized alpha tubulin level at 80 nM incubated for 24 hrs in presence of palladium resins by Western blotting analysis; type: cell-based
[26] = system: K562; experiment: Induction of apoptosis in human K562 cells assessed as necrotic cells at 80 nM incubated for 72 hrs by Annexin V-APC staining based flow cytometric analysis (reference value: 1.65%); type: functional
[27] = Select factor, ratio of test compound IC50 to 5-fluoro-N-(3-hydroxy-4-methoxybenzyl)-2-morpholinobenzamide IC50 for antiproliferative activity against human THLE-2 cells assessed as reduction in cell viability incubated for 72 hrs by CCK-8 assay; type: toxicity, cell-based; settings: read-out: Ratio IC50
[28] = system: K562; experiment: Induction of cell cycle arrest in human K562 cells assessed as accumulation of cells at S phase at 80 nM incubated for 72 hrs in presence of palladium resins by PI staining based flow cytometric analysis ( Rvb = 14.04 %); type: functional
[29] = system: K562; experiment: Induction of apoptosis in human K562 cells assessed as early apoptotic cells at 80 nM incubated for 72 hrs in presence of palladium resins by Annexin V-APC staining based flow cytometric analysis (reference value: 2.78%); type: functional
[30] = system: K562; experiment: Induction of ROS generation in human K562 cells assessed as increase in DCF-positive cells incubated for 72 hrs by DCF-DA staining based flow cytometric analysis (reference value: 7.67%); type: functional

C#CCOc1cc(CNC(=O)c2cc(F)ccc2N2CCOCC2)ccc1OC
Activity [1]: 54.85% | Activity [2]: Non-toxic | Activity [3]: Active | Activity [4]: Active | Activity [5]: Non-toxic | Activity [6]: 8.97% | Activity [7]: 23.64% | Activity [8]: 8.97% | inhibition [9]: Active | Activity [10]: Active | Activity [11]: Active | inhibition [12]: Active | viability at 0.08 µM [13]: 45.4% | Activity [14]: inactive | Activity [15]: 2.95% | Activity [16]: 8.08% | Activity [17]: Active | Activity [18]: Active | Activity [19]: 54.2% | Activity [20]: 1.96% | Activity [21]: Active | Activity [22]: Active | Activity [23]: Non-toxic | viability at 0.08 µM [24]: 92.6% | inhibition [25]: Active | Activity [26]: 1.26% | selectivity ratio at 72 h [27]: 66.2 | Activity [28]: 29.11% | Activity [29]: 23.78% | Activity [30]: 8.22%
